In patent US4900757A, “Hypocholesterolemic and antiatherosclerotic uses of bix(3,5-di-tertiary-butyl-4-hydroxyphenylthio)methane” (Merrell Dow Pharmaceuticals Inc., priority 1988, dated 1990):

Tests used:
human LDL = experiment: Inhibition of LDL peroxidation (cupric sulfate, thiobarbituric acid assay; Example 3); details: ratio of ID50, in words
mice = details: cited from earlier work
[1] = system: Watanabe heritable hyperlipidemic (WHHL) rabbit; experiment: Antiatherosclerotic and hypocholesterolemic effects in the Watanabe Heritable Hyperlipidemic rabbit (Example 2); assay type: in vivo; details: for Aortic Lesions, as a percent of control group / HDL Protein, as a percent of control group / LDL Cholesterol, as a percent of control group / Plasma Cholesterol, as a percent of control group: mean vs respective control group
Description: Divide Watanabe Heritable Hyperlipidemic rabbits (WHHL), 13 to 15 weeks of age, into two treatment groups of 4 to 5 rabbits each. To one treatment group feed standard rabbit chow [Control Group], and to the other group feed standard rabbit chow containing the test compound (1% by weight) [Treatment Group]. In one experiment, probucol is the active treatment [Treatment Group A]. In another experiment, bis(3,5-di-tertiarybutyl-4-hydroxyphenylthio)methane is the active treatment [Treatment Group B].
After 12 weeks of treatment, sacrifice the study animals and take plasma and aorta samples. Determine for each study animal the extent of the atherosclerotic lesions of the aorta by the method of Badimon et al. [Atherosclerosis 61, 57 (1986)]. Determine for each study animal plasma cholesterol concentrations by an enzymatic method using a DACOS analyzer (Coulter Electronics Inc., Hialeah, Florida, USA). Isolate plasma lipoproteins by sequential ultracentrifugation and determine LDL and HDL cholesterol and protein by the method of Mao et al. [Biochemistry 14, 4127 (1975)].

WHHL rabbit = details: in words; cited from earlier work
LDL [2] = details: in vitro; in words; cited from earlier work
LDL [3] = details: in words; cited from earlier work
[4] = 1% (w/w) in feed, 12 weeks, in words

## CC(C)(C)c1cc(SCSc2cc(C(C)(C)C)c(O)c(C(C)(C)C)c2)cc(C(C)(C)C)c1O
Human LDL
  effectiveness in inhibiting peroxidation of human LDL relative to probucol: over twice as effective
mice; comparable treatment (to 2 weeks probucol)
  reduction in the blood cholesterol of mice, in words: no reduction
[1]; 1% (w/w) in feed, 12 weeks
  Aortic Lesions, as a percent of control group: -38%
  HDL Protein, as a percent of control group: +8%
  LDL Cholesterol, as a percent of control group: -35%
  Plasma Cholesterol, as a percent of control group: -20%
[1]; [4]
  amount of HDL in the blood, as measured by HDL protein: increased
  reduction of LDL cholesterol compared with probucol: to a greater extent than probucol
  reduction of aortic lesions compared with probucol: to a greater extent than probucol
  reduction of plasma cholesterol compared with probucol: to a greater extent than probucol
[1]; in words
  progression of atherosclerosis in the WHHL rabbit: prevents the progression of atherosclerosis
  serum cholesterol in the WHHL rabbit: reduces serum cholesterol

## CC(C)(Sc1cc(C(C)(C)C)c(O)c(C(C)(C)C)c1)Sc1cc(C(C)(C)C)c(O)c(C(C)(C)C)c1 [Probucol, 2,2'-bis(3,5-di-tertiary-butyl-4-hydroxyphenylthio)propane, reference compound]
WHHL rabbit
  preventing the progression of atherosclerosis in WHHL rabbit: effective in preventing the progression of atherosclerosis
mice; 2 week treatment
  reduction in the blood cholesterol of mice: 59%
LDL [2]
  inhibition of oxidative modification of LDL by cupric ions: inhibits the oxidative modification of LDL
LDL [3]
  inhibition of oxidative modification of LDL by endothelial cells: inhibits the oxidative modification of LDL
[1]; 1% (w/w) in feed, 12 weeks
  Aortic Lesions, as a percent of control group: -33%
  HDL Protein, as a percent of control group: -21%
  LDL Cholesterol, as a percent of control group: -15%
  Plasma Cholesterol, as a percent of control group: -12%
[1]; [4]
  amount of HDL in the blood, as measured by HDL protein: decreased
